# Reference: patent US9261498B2, “Biomarker for sensitivity to mTOR inhibitor therapy in kidney cancer” (The Regents of the University of California, priority 2005, dated 2016)
# Entries after “also recorded” stand apart in the source; their conditions may differ.
# System: HIF-1α
# Experiment: Immunoblot of heterologously expressed HIF-1α cDNA with or without 5'TOP sequences
# Type: cell-based, human
# Conditions: VHL wild-type SN12C cells, 1 or 10 nM CCI-779, 24 hours
# Description: (a) SN12C-CSCG and SN12C-VHLshRNA cell were treated with vehicle, 1 nM or 10 nM of CCI-779 and lysed 24 hours later. Lysates were subjected to immunoblotting for HIF-1α, HIF-2α, GLUT-1, CA-IX, p-eIF4G, p-S6 Ribosomal protein. Equal protein loading was verified using anti-β-actin antibody. (b) HIF-1α expression was probed by immunoblotting in SN12C-MSCV-5′TOP-HIF-1α cDNA (left panel) and SN12C-MSCV-HIF-1α cDNA (tight panel) post 24 hours of vehicle, 1 nM or 10 nM of CCI-779.
# The pCSUVCG (U6-shRNA-VHL-CMV-GFP) was constructed by ligating the BamHI/EcoRI digests of pCSCG and the U6-shRNA-VHL PCR product (see, e.g. Chen, C. D. et al. Nat Med 10, 33-9 (2004)). The U6-shRNA-VHL PCR was performed using a hU6-containing plasmid at an annealing temperature of 60° C. with the primers 5′ abc 3′ and 5′ xyz 3′. […]
# Cells and xenograft tumors were lysed in ECB lysis buffer or high-detergent buffer (2% SDS), respectively, supplemented with complete protease and phosphatase inhibitor cocktails (Calbiochem). […] Bound antibody was detected using enhanced chemiluminescence (ECL, Amersham). For VEGF ELISA quantification, cells were plated in 6 well plates (1×10^5 per well). […] Thirty-six hours later, VEGF ELISA (R&D Systems) was performed according to the manufacturer's instructions, using a Fisher Plate reader. […]
smiles,measurement,value
CO[C@H]1C[C@@H]2CC[C@@H](C)[C@@](O)(O2)C(=O)C(=O)N2CCCC[C@H]2C(=O)O[C@H]([C@H](C)C[C@@H]2CC[C@@H](OC(=O)C(C)(CO)CO)[C@H](OC)C2)CC(=O)[C@H](C)/C=C(\C)[C@@H](O)[C@@H](OC)C(=O)[C@H](C)C[C@H](C)/C=C/C=C/C=C/1C [CCI-779],"HIF-1α protein levels, 5'TOP sequence removed",largely unaffected
same,"HIF-1α protein levels, cDNA retaining the 5'TOP sequences",reduction in HIF-1α protein levels; also recorded: decrease in HIF-1α protein levels
